40 compounds from ChEMBL document CHEMBL4330130, “Synthesis of amide and sulfonamide substituted N-aryl 6-aminoquinoxalines as PFKFB3 inhibitors with improved physicochemical properties” (Bioorg Med Chem Lett, 2019) can be followed below.

Converted amounts (≈) assume the structure as drawn.

This data set is described as follows: Kinetic solubility of the compound in pH 8 Tris buffer at 500 uM after 90 by UV-Vis absorbance analysis. It counts as physicochemical. Particulars: read-out: Kinetic_solubility.
As for `CC(=O)N1CC(NC(=O)c2ccncc2Nc2cc(-c3ccc4ccn(C)c4c3)c3nccnc3c2)C1`, the solubility kinetic at 500 µM is 244 µg/mL (≈ 496 µM).
Turning to `CC(=O)N1CCOC(CNC(=O)c2ccncc2Nc2cc(-c3ccc4ccn(C)c4c3)c3nccnc3c2)C1` (stereo not given), the solubility kinetic at 500 µM came to 268 µg/mL (≈ 500 µM).
Turning to `Cn1ccc2ccc(-c3cc(Nc4ccccc4S(=O)(=O)N4CCOCC4)cc4nccnc34)cc21`, the solubility kinetic at 500 µM is 5 µg/mL (≈ 10 µM).
On to `CN1CCC(NS(=O)(=O)c2ccccc2Nc2cc(-c3ccc4ccn(C)c4c3)c3nccnc3c2)C1` (stereo not given), for which the solubility kinetic at 500 µM came to 26 µg/mL (≈ 50.7 µM).
Regarding `CN1CCC(NC(=O)c2ccncc2Nc2cc(-c3cc(F)c4ccn(C)c4c3)c3nccnc3c2)C1` (stereo not given), the solubility kinetic at 500 µM came to 185 µg/mL (≈ 373 µM).
For `Cn1cc(CNS(=O)(=O)c2ccccc2Nc2cc(-c3ccc4ccn(C)c4c3)c3nccnc3c2)cn1`, the solubility kinetic at 500 µM was found to be 2 µg/mL (≈ 3.82 µM).
`Cn1cc(NC(=O)c2ccncc2Nc2cc(-c3ccc4ccn(C)c4c3)c3nccnc3c2)cn1`: the solubility kinetic at 500 µM worked out at 2 µg/mL (≈ 4.21 µM).
In the case of `CN1CCCC(NS(=O)(=O)c2ccccc2Nc2cc(-c3ccc4ccn(C)c4c3)c3nccnc3c2)C1` (stereo not given), the solubility kinetic at 500 µM turned out to be 9 µg/mL (≈ 17.1 µM).
In the case of `CN1CCCC(NC(=O)c2ccncc2Nc2cc(-c3ccc4ccn(C)c4c3)c3nccnc3c2)C1` (stereo not given) it was 246 µg/mL (≈ 500 µM); in that of `CN1CCC(CNC(=O)c2ccncc2Nc2cc(-c3ccc4ccn(C)c4c3)c3nccnc3c2)C1` (stereo not given), 246 µg/mL (≈ 500 µM); in that of `CN1CC(NC(=O)c2ccncc2Nc2cc(-c3ccc4ccn(C)c4c3)c3nccnc3c2)CCC1=O` (stereo not given), 253 µg/mL (≈ 500 µM).
In the case of `CC(=O)N1CCCC(NC(=O)c2ccncc2Nc2cc(-c3ccc4ccn(C)c4c3)c3nccnc3c2)C1` (stereo not given) it was 212 µg/mL (≈ 408 µM); in that of `Cn1ccc2ccc(-c3cc(Nc4ccccc4S(N)(=O)=O)cc4nccnc34)cc21`, 6 µg/mL (≈ 14 µM); in that of `CN1CCC(NC(=O)c2ccncc2Nc2cc(-c3ccc4sc(N)nc4c3)c3nccnc3c2)C1` (stereo not given), 241 µg/mL (≈ 485 µM).
Turning to `CC(=O)N1CC(CNC(=O)c2ccncc2Nc2cc(-c3ccc4ccn(C)c4c3)c3nccnc3c2)C1`, the solubility kinetic at 500 µM amounted to 252 µg/mL (≈ 498 µM).
On to `CNS(=O)(=O)c1ccccc1Nc1cc(-c2ccc3ccn(C)c3c2)c2nccnc2c1`, for which the solubility kinetic at 500 µM amounted to 2 µg/mL (≈ 4.51 µM).
In the case of `CN(C)C(=O)c1ccncc1Nc1cc(-c2ccc3ccn(C)c3c2)c2nccnc2c1` it was 175 µg/mL (≈ 414 µM).
The figure for `Cn1ccc2ccc(-c3cc(Nc4ccccc4S(C)(=O)=O)cc4nccnc34)cc21` is 2 µg/mL (≈ 4.67 µM).
In the case of `Cn1ccc2ccc(-c3cc(Nc4ccccc4S(=O)(=O)Nc4cncnc4)cc4nccnc34)cc21` it was 254 µg/mL (≈ 500 µM); in that of `Cn1ccc2ccc(-c3cc(Nc4cnccc4C(=O)NCC4COCCN4)cc4nccnc34)cc21` (stereo not given), 239 µg/mL (≈ 484 µM); in that of `CN(C)S(=O)(=O)c1ccccc1Nc1cc(-c2ccc3ccn(C)c3c2)c2nccnc2c1`, 2 µg/mL (≈ 4.37 µM).
As for `Cn1ccc2ccc(-c3cc(Nc4cnccc4C(N)=O)cc4nccnc34)cc21`, the solubility kinetic at 500 µM worked out at 40 µg/mL (≈ 101 µM).
`CN(Cc1cncnc1)S(=O)(=O)c1ccccc1Nc1cc(-c2ccc3ccn(C)c3c2)c2nccnc2c1`: the solubility kinetic at 500 µM was determined as 3 µg/mL (≈ 5.6 µM).
In the case of `Cc1csc2ccc(-c3cc(Nc4cnccc4C(=O)N[C@@H]4CCN(C)C4)cc4nccnc34)cc12` it was 79 µg/mL (≈ 160 µM); in that of `Cn1cc(CNC(=O)c2ccncc2Nc2cc(-c3ccc4ccn(C)c4c3)c3nccnc3c2)cn1`, 127 µg/mL (≈ 260 µM).
With `Cc1csc2ccc(-c3cc(Nc4cnccc4C(=O)N[C@H]4CCN(C)C4)cc4nccnc34)cc12`, the solubility kinetic at 500 µM is 80 µg/mL (≈ 162 µM).
The figure for `CNC(=O)c1ccncc1Nc1cc(-c2ccc3ccn(C)c3c2)c2nccnc2c1` is 4 µg/mL (≈ 9.79 µM); for `Cn1ccc2ccc(-c3cc(Nc4cnccc4C(=O)NCc4cncnc4)cc4nccnc34)cc21` it is 233 µg/mL (≈ 479 µM); for `CC(=O)N1CCC(NC(=O)c2ccncc2Nc2cc(-c3ccc4ccn(C)c4c3)c3nccnc3c2)C1` (stereo not given) it is 253 µg/mL (≈ 500 µM).
For `CC(=O)N1CCC(NC(=O)c2ccncc2Nc2cc(-c3ccc4ccn(C)c4c3)c3nccnc3c2)CC1`, the solubility kinetic at 500 µM stood at 213 µg/mL (≈ 410 µM).
In the case of `CN1CCC(CNS(=O)(=O)c2ccccc2Nc2cc(-c3ccc4ccn(C)c4c3)c3nccnc3c2)C1` (stereo not given) it was 35 µg/mL (≈ 66.5 µM); in that of `CN1CC(NC(=O)c2ccncc2Nc2cc(-c3ccc4ccn(C)c4c3)c3nccnc3c2)C1`, 170 µg/mL (≈ 367 µM); in that of `CN1CCC(N(C)C(=O)c2ccncc2Nc2cc(-c3ccc4ccn(C)c4c3)c3nccnc3c2)C1` (stereo not given), 245 µg/mL (≈ 498 µM).
With `CN1CCC(NC(=O)c2ccncc2Nc2cc(-c3ccc4ccn(C)c4c3)c3nccnc3c2)CC1`, the solubility kinetic at 500 µM stood at 246 µg/mL (≈ 500 µM).
As for `Cn1ccc2ccc(-c3cc(Nc4cnccc4C(=O)Nc4cncnc4)cc4nccnc34)cc21`, the solubility kinetic at 500 µM is 4 µg/mL (≈ 8.47 µM).
For `Cn1ccc2ccc(-c3cc(Nc4ccccc4S(=O)(=O)NCc4cncnc4)cc4nccnc34)cc21`, the solubility kinetic at 500 µM was determined as 3 µg/mL (≈ 5.75 µM).
As to `Cn1ccc2ccc(-c3cc(Nc4cnccc4C(=O)NC4CCNC(=O)C4)cc4nccnc34)cc21` (stereo not given), the solubility kinetic at 500 µM came to 242 µg/mL (≈ 492 µM).
As to `Cn1ccc2ccc(-c3cc(Nc4ccccc4S(=O)(=O)NCC4CCOCC4)cc4nccnc34)cc21`, the solubility kinetic at 500 µM amounted to 2 µg/mL (≈ 3.79 µM).
In the case of `CN1CCC(NC(=O)c2ccncc2Nc2cc(-c3ccc4ccn(C)c4c3)c3nccnc3c2)CC1=O` (stereo not given), the solubility kinetic at 500 µM was determined as 48 µg/mL (≈ 94.9 µM).
For the compound `CN1CCC(NC(=O)c2ccncc2Nc2cc(-c3ccc4ccn(C)c4c3)c3nccnc3c2)C1` (stereo not given), the solubility kinetic at 500 µM is 229 µg/mL (≈ 480 µM).
